Experimental data as given in PubChem BioAssay AID1159560 (GlaxoSmithKline (GSK), 2015).
The source made the active and inactive calls. No rule for the calls is given here.

tested on: Leishmania donovani growth inhibition; assay: antileishmanial activity against L. donovani parasites (AID 1159560);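 also: parasites exposed to compound for 72 h before the viability read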

Compound	IC50
COCc1cc(Nc2ccc(Cl)cc2)nc(-c2ccccn2)n1	2.5 µM
COc1ccc(CN2CCCCC2c2nc(-c3cccnc3)no2)cc1 (stereo not given)	> 50 µM (inactive)
O=C(NCCc1cccnc1)c1csc(-c2ccccc2)n1	> 50 µM (inactive)
CCC(=O)Nc1ccccc1C(=O)Nc1ccccn1	> 50 µM (inactive)
COc1ccc(S(=O)(=O)NCc2ccc(-c3ccc(CN(C)CCO)cc3)cc2)cc1	> 50 µM (inactive)
c1ccc(CNc2cccc3ccncc23)cc1	10 µM
N#Cc1ccc(S(=O)(=O)N2CCC3(CCN(c4ccccc4)C3=O)CC2)cc1	> 50 µM (inactive)
CN(C)CCN(C)Cc1ccc(Cl)cc1NS(=O)(=O)c1ccc(Cl)c(Cl)c1	5 µM
CN(Cc1ccc(C(N)=O)cc1)C(c1ccc(F)cc1)c1cccnc1 (stereo not given)	> 50 µM (inactive)
CCN(Cc1cccs1)C(=O)CSc1nnc(-c2ccc3c(c2)OCO3)o1	3.2 µM
CCCn1c(NC(=O)CCn2cc(Br)cn2)nc2ccccc21	10 µM
O=C(c1cccc(Nc2ncc(-c3ccc4c(c3)OCO4)cn2)c1)N1CCSC1	1.3 µM
O=C(CC1(O)C(=O)N(Cc2ccccc2)c2ccc(Br)cc21)c1cccnc1 (stereo not given)	> 50 µM (inactive)
CN1C(=O)c2ccccc2Sc2ccc(NC(=O)NCc3ccco3)cc21	> 50 µM (inactive)
COc1ccc(S(=O)(=O)Nc2ccccc2OC)cc1NC(=O)CCCc1c[nH]c2ccccc12	25 µM
Cc1cc(NC(=O)c2ccc([N+](=O)[O-])s2)ccc1Br	3.2 µM
O=C(CN1CCN(c2ccccn2)CC1)Nc1cc(S(=O)(=O)N2CCCCCC2)ccc1Cl	7.9 µM
Cc1cc(Oc2cc(Cl)c(Cl)cc2Cl)n2ncnc2n1	16 µM
NC(N)=Nc1nc(-c2ccc(NC(N)=NCCN3CCCC3)cc2)cs1	> 50 µM (inactive)
Cc1cc(C)n(-c2nc(NC(C)(C)C)nc(N3CCOCC3)n2)n1	6.3 µM
